According to US11149230B2, “Process for extracting carboxylic acids produced by anaerobic fermentation from fermentable biomass” (AFYREN, priority 2015, dated 2021):

What was measured:
[1] = test system: optimized anaerobic microbial mix; test: Test 3: comparison of fermentation in the presence or absence of octanoic acid; format: cell-based; settings: restoration waste 50 g/l dry matter, initial addition of 0.7 g/l
Method: Two fermentations of grass cuttings/mowings in non-sterile mode, at a concentration of 25 g/l of dry matter, in an anaerobic bioreactor with a working volume of 2 l, operated in mesophilic mode (38° C.), were carried out in parallel for 160 h. In the first experiment, after inoculation of an optimized anaerobic microbial mix, an initial addition of heptanoic acid in an amount of 2.8 g/l was carried out. […] The second fermentation, which is de facto a control culture, was carried out in parallel under the same conditions except for the addition of heptanoic acid.

[2] = test system: optimized anaerobic microbial mix; test: Test 2: comparison of fermentations in the presence or absence of heptanoic acid; format: cell-based; settings: grass cuttings/mowings 25 g/l dry matter, 38° C., 160 h, initial addition of 2.8 g/l
Method: Two fermentations of grass cuttings/mowings in non-sterile mode, at a concentration of 25 g/l of dry matter, in an anaerobic bioreactor with a working volume of 2 l, operated in mesophilic mode (38° C.), were carried out in parallel for 160 h. In the first experiment, after inoculation of an optimized anaerobic microbial mix, an initial addition of heptanoic acid in an amount of 2.8 g/l was carried out. This presence of heptanoic acid makes it possible to understand the biocompatible nature of an extraction carried out with this type of solvent. Indeed, the culture medium after extraction is reintroduced into the bioreactor and may contain traces of extraction solvent up to the amount of their solubility threshold. The second fermentation, which is de facto a control culture, was carried out in parallel under the same conditions except for the addition of heptanoic acid.
During these fermentations, liquid-phase and gas-phase metabolite monitorings were carried out. At the end of fermentation, the yields obtained regarding the production of volatile fatty acids is 0.33 g of VFA/g of dry matter in the case of the experiment with the addition of heptanoic acid, and 0.39 g of VFA/g of dry matter for the control fermentation. […]

CCCCCCCC(=O)O [octanoic acid, Octanoic acid]
yield of production of volatile fatty acids at the end of fermentation [1]: 0.3 g of VFA/g of dry matter

CCCCCCC(=O)O [heptanoic acid, Heptanoic acid]
negative effect on the production of volatile fatty acids versus control fermentation [2]: about 15% | yield of production of volatile fatty acids at the end of fermentation [2]: 0.33 g of VFA/g of dry matter
